{"source": "patent US7279290B2", "about": "“ATM kinase compositions and methods” (St. Jude Children's Research Hospital, priority 2002, dated 2007)", "key": {"Ser^1981 in ATM": {"test_system": "Ser^1981 in ATM", "experiment": "Ser^1981 phosphorylation of ATM in primary fibroblasts after treatment with agents", "format": "cell-based, human", "details": "for Phosphorylation of ATM: over one and five hours after exposure", "description": "Another aspect of the present invention provides a method of detecting DNA damage in a cell by identifying the activation state of ATM kinase.\n293T cells, HeLa cells and 1070SK primary human foreskin fibroblasts (HFF) (>passage 20, ATCC) were cultured in Dulbecco's Modification of Eagle's Medium (DMEM) supplemented with 10% fetal bovine serum (FBS). GM00637 and GM09607 fibroblasts were grown in DMEM containing 15% FBS. GM00536 lymphoblast cells were grown in RPMI supplemented with 10% fetal calf serum. 293T cells were transfected using FUGENE™ (Roche, Indianapolis, Ind.) and HeLa cells, GM00637 and GM09607 with LIPOFECTAMINE™ (INVITROGEN™ Corp., Carlsbad, Calif.). Metabolic labeling was performed by pre-equilibrating cells in phosphate-free media for three hours prior to the addition of 0.5 mCi/ml ^32P orthophosphate (PerkinElmer Life Sciences Inc., Boston, Mass.) for 30 minutes. Inhibition of DNA synthesis and analysis of G2/M checkpoint after irradiation was assessed using well-known methods (e.g., Xu, et al. (2001) Mol. Cell. Biol. 21:3445-3450). Wortmannin was added to samples on ice 15 minutes prior to reactions and 5 μM manganese and 1 μg sonicated calf thymus DNA were present or absent. Proteins were crosslinked by incubating cells in formaldehyde/phosphate-buffered saline (PBS) for 10 minutes at room temperature. Formaldehyde was washed out using PBS containing 100 mM glycine and immunoprecipitation was then performed. Hypotonic swelling was performed for 1 hour in PBS containing 0.45% glucose (w/v) and 1% FBS with the NaCl concentration reduced to either 50 mM or 100 mM. HFF were incubated with chloroquine in DMEM containing 10% FBS for four hours. Prior to an eight hour incubation with Trichostatin A, HFF was grown for 24 hours in DMEM containing 0.1% FBS. […] For immunofluoresence experiments, HFF grown on glass slides were fixed in 50% methanol/50% acetone for two hours at −20° C. Cells were incubated with primary antibodies at 1/1000 (H2AXγ; Upstate, Charlottesville, Va.) and secondary antibodies at 1/500 (Cy3 anti-mouse and FITC anti-rabbit; Jackson ImmunoResearch Laboratories, Inc., West Grove, Pa.) in PBS, 10% FBS for one hour.\nMammalian cell extracts were prepared in buffer A. Cleared supernatants were immunoprecipitated with anti-FLAG® M2 sepharose or anti-ATM D1611 (Alligood, et al. (2000) Hybridoma 19:317-321) and protein A/G agarose. Beads were washed twice with buffer A and twice with RIPA buffer. Co-immunoprecipitation was performed in buffer B: 50 mM Tris (pH 7.5), 150 mM NaCl, 0.5% TWEEN® 20, 0.2% NP-40, 50 mM NaF, 1 mM AEBSF, and 1x protease inhibitor mixture (Roche, Indianapolis, Ind.).\nWestern blotting was performed with anti-FLAG® M5 (Sigma-Aldrich, St. Louis, Mo.), anti-ATM MAT3, anti-GST (Amersham Pharmacia Biotech, Uppsala, Sweden) or anti-6x-His (Sigma-Aldrich, St. Louis, Mo.)."}, "ATM protein": {"test_system": "ATM protein", "experiment": "ATM phosphorylation after chromatin-modifying treatments (immunoblot and immunofluorescence)", "format": "cell-based, human", "from_the_text": "Since such a high fraction of cellular ATM becomes phosphorylated so rapidly in the presence of so few DNA strand breaks, it is unlikely that the ATM oligomers could require direct binding to DNA strand breaks for activation and autophosphorylation. Therefore, the introduction of DNA strand breaks may cause a change in the nucleus that activates ATM at a distance from the break itself. As DNA strand breaks introduced by ionizing irradiation rapidly alter topological constraints on DNA (Roti Roti and Wright (1987) Cytometry 8:461-467; Jaberaboansari, et al. (1988) Radiat. Res. 114:94-104; Malyapa, et al. (1996) Int. J. Radiat. Oncol. Biol. Phys. 35:963-973),alterations in some aspect of chromatin structure fit the criteria of being a rapid change and being able to act a distance in the nucleus. Chromatin and chromosome structures can be altered in the absence of DNA breaks by hypotonic conditions (Earnshaw, and Laemmli (1983) J. Cell Biol. 96:84-93; Jeppesen, et al. (1992) Chromosoma 101:322-332), exposure to chloroquine (Krajewski (1995) FEBS Letters 361:149-152; Jensen, et al. (1994) Cancer Res. 54:2959-2963; Snyder (2000) Environ. Mol. Mutagen. 35:13-21), or treatment with histone deaceylase inhibitors (Krajewski (1999) J. Biomol. Struct. Dynam. 16:1097-1106; Yoshida, et al. (1995) BioEssays 17:423-430; Kuo and Allis (1998) BioEssays 20:615-626). […]"}, "Ser^1981 of ATM": {"test_system": "Ser^1981 of ATM", "experiment": "Ser^1981 phosphorylation following irradiation of human diploid fibroblasts", "format": "cell-based", "description": "Autophosphorylation of Ser^1981 was determined using glutathione-S-transferase (GST) fusion proteins containing various lengths of ATM as substrates of the ATM kinase in in vitro kinase reactions. A polypeptide containing the appropriate serine residue at 1981 was an excellent in vitro substrate, whereas a Ser^1981→Ala mutant was not phosphorylated by ATM whether the read-out was incorporation of radioactive phosphate or binding by the α-Ser^1981-P antibody. […] This concentration of wortmannin inhibits both ATM and DNA-dependent protein kinase (DNA-PK), but not ataxia- and Rad3-related protein (ATR), in vivo (Sarkaria, et al. (1998) Cancer Res. 58:4375-4382). To exclude DNA-PK as a responsible kinase, phosphorylation of Ser^1981 was determined in a cell line lacking DNA-PK activity. The kinetics and levels of IR-induced phosphorylation of Ser^1981 were identical to those in a similar cell line containing DNA-PK activity."}, "HFF": {"test_system": "HFF", "experiment": "Cell death of HFF during incubation", "details": "HFF incubated with chloroquine four hours", "description": "293T cells, HeLa cells and 1070SK primary human foreskin fibroblasts (HFF) (>passage 20, ATCC) were cultured in Dulbecco's Modification of Eagle's Medium (DMEM) supplemented with 10% fetal bovine serum (FBS). GM00637 and GM09607 fibroblasts were grown in DMEM containing 15% FBS. GM00536 lymphoblast cells were grown in RPMI supplemented with 10% fetal calf serum. 293T cells were transfected using FUGENE™ (Roche, Indianapolis, Ind.) and HeLa cells, GM00637 and GM09607 with LIPOFECTAMINE™ (INVITROGEN™ Corp., Carlsbad, Calif.). Metabolic labeling was performed by pre-equilibrating cells in phosphate-free media for three hours prior to the addition of 0.5 mCi/ml ^32P orthophosphate (PerkinElmer Life Sciences Inc., Boston, Mass.) for 30 minutes. Inhibition of DNA synthesis and analysis of G2/M checkpoint after irradiation was assessed using well-known methods (e.g., Xu, et al. (2001) Mol. Cell. Biol. 21:3445-3450). Wortmannin was added to samples on ice 15 minutes prior to reactions and 5 μM manganese and 1 μg sonicated calf thymus DNA were present or absent. Proteins were crosslinked by incubating cells in formaldehyde/phosphate-buffered saline (PBS) for 10 minutes at room temperature. Formaldehyde was washed out using PBS containing 100 mM glycine and immunoprecipitation was then performed. […]"}, "HeLa cells": {"test_system": "HeLa cells", "experiment": "Radioprotection assay (colony formation after irradiation)", "format": "cell-based", "details": "for Average Number of Colonies*: 2 μg/ml chloroquine one hour, washed one hour, 1000 cells plated", "description": "HeLa cells were treated with 2 μg/ml of chloroquine for one hour, washed for one hour, and irradiated at 2 or 6 Gy. Subsequently, 1000 cells were plated and assessed for colony formation."}, "[1]": {"details": "one hour following exposure, 2 nM camptothecin, 17 nM etoposide or 0.1% H2O2"}}, "data": [{"smiles": "COS(C)(=O)=O", "note": "[MMS, methlymethanesulfonate]", "values": [{"measurement": "Phosphorylation of Ser^1981 in ATM", "setting": "Ser^1981 in ATM; five hours after treatment, compared with one hour", "result": "more prominent phosphorylation"}]}, {"smiles": "OO", "note": "[H2O2]", "values": [{"measurement": "Phosphorylation of Ser^1981 in ATM", "setting": "Ser^1981 in ATM; [1]", "result": "detected"}]}, {"smiles": "NC(=O)NO", "note": "[hydroxyurea]", "values": [{"measurement": "Phosphorylation of ATM", "setting": "Ser^1981 in ATM", "result": "Little or no phosphorylation"}]}, {"smiles": "C[C@@]1(CO)[C@H](O)CC[C@@]2(C)[C@H]1CC[C@H]1C[C@@H]3C[C@@]12CC[C@]3(O)CO", "note": "[aphidicolin]", "values": [{"measurement": "Phosphorylation of ATM", "setting": "Ser^1981 in ATM", "result": "Little or no phosphorylation"}]}, {"smiles": "CC(/C=C/C(=O)NO)=C\\[C@@H](C)C(=O)c1ccc(N(C)C)cc1", "note": "[Trichostatin, Trichostatin A]", "values": [{"measurement": "phosphorylation of ATM protein", "setting": "ATM protein", "result": "induced rapid and diffuse phosphorylation"}]}, {"smiles": "COC[C@H]1OC(=O)c2coc3c2[C@@]1(C)C1=C(C3=O)[C@@H]2CCC(=O)[C@@]2(C)C[C@H]1OC(C)=O", "note": "[wortmannin]", "values": [{"measurement": "concentration effectively inhibiting phosphorylation of Ser^1981", "setting": "Ser^1981 of ATM", "result": "≥ 20", "unit": "µM"}]}, {"smiles": "CCN(CC)CCCC(C)Nc1ccnc2cc(Cl)ccc12", "note": "(stereo not shown) [chloroquine]", "values": [{"measurement": "cell death", "setting": "HFF", "result": "No cell death was observed"}, {"measurement": "Average Number of Colonies*", "setting": "HeLa cells; irradiated at 2 Gy", "result": 580}, {"measurement": "Average Number of Colonies*", "setting": "HeLa cells; irradiated at 6 Gy", "result": 129}, {"measurement": "increase in cell survival by treatment prior to irradiation", "setting": "HeLa cells; HeLa cells, chloroquine prior to irradiation", "result": 30, "unit": "%"}, {"measurement": "phosphorylation of ATM protein", "setting": "ATM protein", "result": "induced rapid and diffuse phosphorylation"}]}, {"smiles": "CC[C@@]1(O)C(=O)OCc2c1cc1n(c2=O)Cc2cc3ccccc3nc2-1", "note": "[camptothecin]", "values": [{"measurement": "Phosphorylation of Ser^1981 in ATM", "setting": "Ser^1981 in ATM; [1]", "result": "detected"}]}, {"smiles": "Cc1cn([C@H]2C[C@H](O)[C@@H](CO)O2)c(=O)[nH]c1=O", "note": "[thymidine]", "values": [{"measurement": "Phosphorylation of ATM", "setting": "Ser^1981 in ATM", "result": "Little or no phosphorylation"}]}]}
